These results are taken from US20250074869A1, “AMINO-COMBRETASTATIN DERIVATIVE AND USE THEREOF” (priority 2020, published 2025).

Structures can show the parent of a compound that is named as a salt.

What is called LD50 is the dose expected to kill half of the subjects tested.

The nature of data set [1]: Acute toxicity study in animals (oral LD50). The following applies: mouse, in vivo, male ICR mice, intragastric administration, observed 14 days, hydrochloride salts. The source says:
(§1) Male ICR mice weighed 23±2 g, clean grade, were selected. The route of administration was intragastric (ig) administration, which is consistent with the intended oral route for clinical use.
(§2) Mice were randomly divided into 8 groups by weight: the blank control group, Example 1 group, Example 5 group, Example 11 group, Example 12 group, Example 13 group, Example 14 group and control group. Among these, the control group received amino-combretastatin serinamide hydrochloride as the control (hereinafter referred to as control).
(§3) Preparation of the compounds used in the example groups: The compounds obtained in Example 1, Example 3. Example 4. Example 5. Example 6. Example 7. Example 8. Example 9. Example 10. Example 11. Example 12, Example 13 and Example 14 were prepared into hydrochloride salts according to the method disclosed in Example 2.
(§4) Pre-treatment: […] were deprived of food but not water for 12 h before the study. and randomized into groups of 10 by body weight. The treatment groups were intragastrically administered once at 0.25 mL/10 g body weight, and the water control group received an equivalent amount of distilled water through intragastric administration. The LD100 value (the amount for 100% death), LD0 (the amount for 0 death) and the corresponding range r value between the dose groups were calculated, and LD50 was determined.
(§5) Study procedures: 160 mice were randomized into 8 groups of 20 mice by body weight. After deprivation of food but not water for 12 h before the study, each group was intragastrically given the compound once at 0.3 mL/10 g body weight. Since no death was observed after 12 h, the second dose was given. The control group received equivalent volumes of water. The daily dose of each group was calculated; the control group received equal volumes of water and was subjected to an acute toxicity study for observation and the body weight of the mice was recorded daily for 14 days.

The subject of data set [2] is Male ICR mice. Briefly: Acute toxicity study in animals (oral LD50). Particulars: mouse, in vivo.
Description: as §1, §2, §3, §4, §5

The test system of data set [3] is colon cancer cells HT-29. Briefly: Efficacy study in nude mouse with xenograft tumor, HT-29. It is filed as in vivo, human. The following applies: BALB/cA-nude mice, subcutaneous xenograft, 50 mg/kg intragastric once daily for 21 days, dosed as hydrochloride. As to the method: (§6) BALB/cA-nude mice aged 6 to 7 weeks were purchased from Shanghai Slac Laboratory Animal Co., Ltd. The nude mice were subcutaneously grafted with human liver cancer cells Bel-7402, colon cancer cells HT-29, gastric cancer cells SGC-7901 or non-small cell lung cancer cells A549. After the tumor grew to 100 to 250 mm^3, the animals were randomized (d0). The tumor volumes and body weights were measured twice or thrice a week, and the data were recorded. Tumor volume (V) was calculated as follows:
(§7) [formula] • wherein a and b represent length and width, respectively; T and C are the tumor volumes at the end of study; T0 and C0 are the tumor volumes at the start of study.
(§8) All samples were diluted to the desired concentration with 50% PEG400 in distilled water. The regimen was once daily for 21 days at 50 mg/kg mouse body weight through intragastric administration, and 50 mg/kg for the control. The compounds obtained in Examples 1, 3, 4, 5, 6, 7, 8, 9, 10, 11, 12, 13 and 14 and the control were prepared into corresponding hydrochloride as the dosing compounds according to the method disclosed in Example 2 to investigate their efficacy on human liver cancer cell Bel-7402, colon cancer cell HT-29, gastric cancer cell SGC-7901 or non-small cell lung cancer cell A549 xenograft tumors in nude mice and to compare the compounds with the control (prepared as in Example 16).

Data set [4] relates to non-small cell lung cancer cells A549. Briefly: Efficacy study in nude mouse with xenograft tumor, A549. It counts as in vivo, human. The following applies: BALB/cA-nude mice, subcutaneous xenograft, 50 mg/kg intragastric once daily for 21 days, dosed as hydrochloride. As to the method:
as §6, §7, §8

Data set [5] concerns human liver cancer cells Bel-7402. Briefly: Efficacy study in nude mouse with xenograft tumor, Bel-7402. The following applies: BALB/cA-nude mice, subcutaneous xenograft, 50 mg/kg intragastric once daily for 21 days, dosed as hydrochloride. It is filed as in vivo. As to the method:
as §6, §7, §8

The subject of data set [6] is gastric cancer cells SGC-7901. Briefly: Efficacy study in nude mouse with xenograft tumor, SGC-7901. It counts as in vivo, human. Particulars: BALB/cA-nude mice, subcutaneous xenograft, 50 mg/kg intragastric once daily for 21 days, dosed as hydrochloride. As to the method:
as §6, §7, §8

For `CCOc1ccc(/C=C\c2cc(OC)c(OC)c(OC)c2)cc1NC(=O)CCN(CCO)CCO` [Hydrochloride of Example 11], the LD50 at 14 days in data set [1] was 1100 mg/kg.

In the case of `COc1ccc(/C=C\c2cc(OC)c(OC)c(OC)c2)cc1NC(=O)CCN(CCO)CCO` [Hydrochloride of Example 12], in data set [1], the LD50 was found to be 1100 mg/kg.

Consider `CCOc1ccc(/C=C\c2cc(OC)c(OC)c(OC)c2)cc1NC(=O)CCNCC(F)F` [Hydrochloride of Example 13], for which the 50% lethal dose (LD50) in data set [1] came out at 1000 mg/kg.

Consider `CCOc1ccc(/C=C\c2cc(OC)c(OC)c(OC)c2)cc1NC(=O)CCNCC(OC)OC` [Hydrochloride of Example 14], for which the LD50 at 14 days in data set [1] is 1000 mg/kg.

In data set [2], “amino-combretastatin serinamide hydrochloride [Control, reference compound]” gave an LD50 of 200 mg/kg. In addition, the “% tumor inhibition (D21) HT-29” value in data set [3] is given as 42%. Besides, the “% tumor inhibition (D21) A549” value in data set [4] is given as 30%. For the same compound, the “% tumor inhibition (D21) Bel-7402” value in data set [5] is reported as 39%. The “% tumor inhibition (D21) SGC-7901” value in data set [6] is on record as 34%.
